The text below walks through data of patent publication US9149469B2, “Pharmaceutical composition and a process thereof” (INDUS Biotech PVT. Ltd., priority 2007, dated 2015).

The structures appear in SMILES notation.

Test [1] has as its system 6-OHDA unilateral lesion of the dopaminergic nigrostriatal pathway. In words: 6-Hydroxydopamine model (rotation). The class given is in vivo, Male Wistar mice. On the procedure: 6-Hydroxydopamine (6-OHDA) is a neurotoxin which causes a unilateral lesion of the dopaminergic nigrostriatal pathway that induces hypersensitivity of the post synaptic dopaminergic receptor in the striatum of the lesioned side. An indirect acting compound like amphetamine is administered the mice rotate toward the lesioned side (ipsilateral) as opposed to when a direct acting dopaminergic drug is administered which causes then to rotate contra laterally. Therefore, this test can be used for the study of central dopamine function and the evaluation of dopamine antagonists and agonists, particularly the activity of novel anti-parkinsonian drugs. This test clearly distinguishes drugs with predominantly dopamine receptor agonist activity from those with predominantly dopamine releasing activity of the drug.
Procedure: Male Wistar […] weighing 200-250 grams at the time of surgery are used. They are housed individually in a controlled environment with free access to food and water. The animals are anaesthetized with sodium pentobarbital. The head is placed in a stereotaxic device (DKI 900) and positioned according to the atlas of Konig and Klippel. After a sagittal cut is made in the skin of the skull, a 2 mm wide hole is drilled with an electrical trepan drill. Care is taken not to lesion the meninges. A 30 gauge stainless-steel cannula connected to a Hamilton syringe is aimed at the anterior zona compacta of the substantia nigra (coordinates anterior 1.88 mm, lateral 2.0 mm and dorso-ventral—8.2 mm from instrument zero). A total of 8 μg of […] in 4 γ/L of saline is injected at a rate of 1 γ/L/min. After the intra-cranial injection, the wound is closed.
The animal is allowed several weeks for recovery and for development of the lesion. Specially constructed opaque plastic spheres attached to solid state programming equipment serve as test chambers. The number of full turns, either ipsilateral or contra lateral to the lesion, are recorded on an automatic printout counter every 15 min for one or two hours test sessions. To determine the control values for ipsilateral turning, each subject is administered 2.5 mg/kg of d amphetamine and immediately placed in the circling chamber for 2 hours Control values for contra lateral circling are determined by injecting apomorphine at 1 mg/kg s.c. and recording the rat's circling for 1 hour. Test compounds are given i.p or sc. And the animals placed into the circling chambers. Circling is recorded over a 1 hour period. This experiment is conducted in 30 animals and the average is represented in the table

Test [2] concerns oxotremorine induced tremors. In words: Oxotremorine antagonism (tremor, salivation, lacrimation scores). The class given is in vivo, NMRI mice. On the procedure: Oxotremorine is a cholinergic drug which is a muscarine agonist and induces parkinsonism-like signs such as tremors, ataxia, spasticity, salivation, lacrimation and hypothermia. Oxotremorine is a cholinergic drug, which induces excessive tremors in mice. If a drug is having anti-cholinergic property like atropine the tremors will be decreased.
Procedure: Groups of 6-10 male NMRI mice weighing 18-22 g are used. They are dosed orally with the test compound or the standard (5 mg/kg benezatropine mesilate) 1 hour prior to the administration of 0.5 mg/kg oxotremorine. Tremor is scored after oxotremorine dosage in periods of 5 min for 1 hour.
After the administration of 0.5 mg/kg of Oxotremorine, the tremors started within 15 mins and were sustained for 30 mins.

Test [3] deals with Haloperidol induced catalepsy. The test can be described thus: Haloperidol induced catalepsy in mice (bar test). The class given is in vivo, Swiss Albino mice. The source says: Haloperidol is neuroleptic agent that blocks the Dopamine D2 receptor in the brain. This precipitates the extra-pyramidal side effects which can be measured by the “Bar Test for catalepsy in mice”. Catalepsy in mice is defined as a failure to correct an externally imposed unusual posture over a prolonged period of time. […] Haloperidol induced catalepsy can be reversed if dopaminergic drugs that supply dopamine to the striatum of the brain since it increase competitive antagonism.
Procedure: Swiss Albino mice of either sex weighing 23-28 g are used. Catalepsy was induced by Haloparidol (0.5 mg/kg i.p.) and assessed by bar test up to 3 hrs. Six animals are dosed with the saline, test drug and the standard intraperitonially. The animals are placed in translucent plastic boxes with a wooden dowel mounted horizontally 2.5 cm from the floor of the box. The animals are allowed to adapt to the box for 2 min. Then, each animal is grasped gently around the shoulders and under the forepaws and placed carefully on the dowel. The amount of the time spent with at least one forepaw on the bar is determined. When the animal removes its paws, the time is recorded and the mice are repositioned on the bar. Three trials are conducted for each animal at 30, 60, 120 and 360 min, with 6 animals in each group.

Setting [4] is: positive control 5 mg/kg and oxytremorine, n = 6.

On to `CN1CCc2cccc3c2[C@H]1Cc1ccc(O)c(O)c1-3` [Apomorphine], for which, in test [1] (Apomorphine 0.3 mg/kg), the “Contra-lateral Rotation” value amounted to 169.33 and the “Ipsilateral Rotation” value is listed as 0.67.
`CN1[C@@H]2CC[C@H]1C[C@@H](OC(=O)C(CO)c1ccccc1)C2` (stereo partly shown) [Atropine]: the “decrease in severity of tremors” value in test [2] (Atropine 1 mg/kg, FIG. 2) is recorded as “significant decrease in severity of tremors”. For the same molecule, in test [2] (Atropine, dose not given), the “Lacrimation score at 30 minutes” value is listed as 0.6 and the “Salivation score at 30 minutes” value was determined as 0.8. In test [2] (setting [4]), the “Tremor score 5 minutes” value stood at 0.9, the “Tremor score 15 minutes” value is reported as 0.9, the “Tremor score 30 minutes” value stood at 1.0 and the “Tremor score 45 minutes” value is reported as 1.3.
Take `N[C@@H](Cc1ccc(O)c(O)c1)C(=O)O` [L-Dopa, Dihydroxy Phenyl Alanine]: the reduction of catalepsy entry in test [3] (L-DOPA (10)+Hal (0.5) compared with Hal (0.5) at respective time, FIG. 1) was “significant at P<0.001”. In addition, in test [3] (L-Dopa 10 mg/kg compared with test drug 100 mg/kg), the “reducing catalepsy, standard versus test drug” value is on record as “more effective than the test drug at a dosage of 100 mg/kg”. Further, in test [1] (L-Dopa 10 mg/kg), the “Contra-lateral Rotation” value is given as 45.67 and the “Ipsilateral Rotation” value came out at 0.83.
